Source: article PMC13274462, “Growth of Corynebacterium glutamicum on 5-oxo-L-proline (pyroglutamate) as a carbon and nitrogen source requires the PxpR-controlled pxpTABC genes” (Applied and Environmental Microbiology, 2026)

Biological target: T1, PxpR (Corynebacterium glutamicum, UniProt Q8NRP0)
T1 construct: gene Cgl1008; PxpR protein with a C-terminal Strep-tag-II (PxpR-Strep)
T1 sequence (Q8NRP0 11-227): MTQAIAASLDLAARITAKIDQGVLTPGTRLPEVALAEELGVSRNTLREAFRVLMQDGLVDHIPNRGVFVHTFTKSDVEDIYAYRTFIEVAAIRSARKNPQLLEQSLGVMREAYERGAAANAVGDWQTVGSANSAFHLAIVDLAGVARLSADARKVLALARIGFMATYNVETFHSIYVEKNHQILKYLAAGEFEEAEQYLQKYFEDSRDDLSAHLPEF
Assay: isothermal titration calorimetry (ITC) with purified PxpR-Strep, […]°C, pH […]
Format: binding

Kd: 726 ± 23 nM
SMILES: O=C1CC[C@@H](C(=O)O)N1 [5-OP, 5-oxo-L-proline]
